Measured values: patent publication US12485106B2, “Methods of treating fibrotic liver diseases or conditions with indeglitazar” (PLEIOGENIX INC., priority 2023, dated 2025)
“Also recorded” adds a separate entry of the source.

Columns and labels:
PPARα = molecular target: T1, PPARα (Homo sapiens, UniProt Q07869); conditions: cited from earlier work
T1 sequence (Q07869 1-468): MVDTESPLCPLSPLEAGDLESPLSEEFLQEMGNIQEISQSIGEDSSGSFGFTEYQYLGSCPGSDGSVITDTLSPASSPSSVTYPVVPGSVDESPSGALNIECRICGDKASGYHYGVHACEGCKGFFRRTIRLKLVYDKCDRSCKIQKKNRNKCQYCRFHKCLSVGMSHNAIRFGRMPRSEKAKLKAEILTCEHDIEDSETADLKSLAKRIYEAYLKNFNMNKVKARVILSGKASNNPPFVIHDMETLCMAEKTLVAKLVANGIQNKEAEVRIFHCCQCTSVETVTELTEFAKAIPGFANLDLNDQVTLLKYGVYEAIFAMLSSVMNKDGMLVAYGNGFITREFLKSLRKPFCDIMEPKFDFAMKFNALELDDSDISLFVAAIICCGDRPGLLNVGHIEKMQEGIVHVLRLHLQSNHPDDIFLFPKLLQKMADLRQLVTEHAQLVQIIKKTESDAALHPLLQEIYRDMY

[1] = Parallel Artificial Membrane Permeability-Blood Brain Barrier Assay (PMBBB-096); format: in vitro ADME; conditions: compared to promazine HCl (high permeability control)
Experimental: Indeglitazar was evaluated using the Parallel Artificial Membrane Permeability-Blood Brain Barrier Assay (PMBBB-096; BioAssay Systems, Hayward, CA).

[2] = test system: mouse model of human alcoholic hepatitis; experiment: AH (NIAAA) mouse model, 8-week efficacy and safety study, alone and with prednisolone
From the text: Mice were fed with the ethanol diet for four weeks, followed by 4 weeks of intervention (8 weeks total treatment).
Livers were collected at the end-point from all mice and weighed. Liver samples were processed for histology to assess steatosis, inflammatory infiltrates and fibrosis. Briefly, liver tissue was fixed in 4% paraformaldehyde and paraffin-embedded, sectioned into 5 m thickness, and stained with hematoxylin-eosin (H&E), Oil-Red O staining, and Masson's trichrome staining.
Safety testing: The safety of indeglitazar treatment was assessed by body weight measurements and full necropsy at endpoint. Mice were terminated from the experiment by isoflurane anesthesia and blood was collected by a cardiac bleed into EDTA-treated tubes, and then centrifuged to obtain plasma to conduct clinical chemistry including full liver and renal toxicology panel. A portion of the liver was analyzed for liver triglycerides and cholesterol levels by biochemical assays. […] Hearts were weighted and fixed in 10% NBF, paraffin embedded, and sectioned into 4-μm thick slices. H&E staining was used to investigate myocardial cell hypertrophy, and ventricle diameters by microscopy.

[3] = test system: adiponectin gene expression; conditions: compared with full PPAR γ-agonists like pioglitazone; cited from earlier work
[4] = test system: carbon tetrachloride (CCl4)-treated mice model of human NAFLD, NASH, and hepatic fibrosis; experiment: CCl4-treated mouse model of human NAFLD, NASH and hepatic fibrosis; format: in vivo; conditions: vs CCl4 vehicle
From the text: Mouse model generation and treatment. C57Bl/6 mice (6-week-old, males) were purchased from Jackson Laboratories and were housed under specific pathogen-free conditions. All experiment protocols were approved by the Institutional Animal Care and Use Committee (IACUC) of Pleiogenix, or its research partners. The mice were acclimated for a minimum of seven days prior to initiation of treatment (Sanyal A J et al., N Engl J Med, (2010), 362:1675-85). The mice were fed Purina normal chow and drinking water ad libitum during the acclimation period. After acclimation, the mice were randomized based on body weight (bw). A total of 22 mice were used; and treated as described in Table 1. Briefly, on day 0, mice were treated according to Table 4.
Liver fibrosis was induced as previously described (Nesto R W et al., Circulation, (2003), 108:2941-8). Carbon tetrachloride (CCl4), formulated in mineral oil, was administered twice per week i.p. at 1 μl/gram body weight throughout the study duration (8 wks). Indeglitazar was administered daily by oral gavage at 30 mg/kg body weight throughout the study duration (8 wks). Mice were observed daily for clinical signs. Any observations noted outside of the scheduled observations were documented as unscheduled. Assessments included, but were not be limited to, assessment of activity, posture, respiration, emesis, seizure, hydration status, injection site irritation, and overall body condition. The absence or presence of findings were recorded.
Individual body weights were recorded on all animals prior to the initiation of the study and weekly body weights were recorded. Blood was collected and plasma was measured for alanine aminotransferase (ALT) and aspartate aminotransferase (AST) and on weeks 0 (baseline), 4, and wk 8 (terminal). At the end of the study, liver necropsy was performed including weighing and processing for histology, and frozen at −80° C. for the following downstream analyses: Liver histopathology: hematoxyline and eosin (H&E) staining (Kumar P et al., PLOS ONE, (2014), 9:e110405); Sirius Red staining for fibrosis (Nesto R W et al., Circulation, (2003), 108:2941-8). Biochemical markers of human hepatic fibrosis and anti-fibrotic adipokine, adiponectin: hepatic hydroxyproline (Nesto R W et al., Circulation, (2003), 108:2941-8); plasma TGFβ1 (Fischer A H et al., CSH Protoc, (2008), 2008:pdb.prot4986); adiponectin (Guo J C et al., Zhonghua Shi Yan He Lin Chuang Bing Du Xue Za Zhi, (2008), 22:354-7).
[…]

[5] = indeglitazar 50 mg/kg, prednisolone 10 mg/kg, vs EtOH-treated vehicle control
[6] = indeglitazar 50 mg/kg, prednisolone 10 mg/kg, vs ethanol-treated vehicle control
[7] = indeglitazar 50 mg/kg, prednisolone 10 mg/kg, vs vehicle+EtOH
[8] = indeglitazar 50 mg/kg/day, prednisolone 10 mg/kg/day, vs ethanol-treated vehicle control
[9] = indeglitazar 50 mg/kg/day, prednisolone 10 mg/kg/day, vs ethanol-treated vehicle control, listed as indeglitazar
[10] = 30 mg/kg/day oral gavage, 8 wks, male mice

Q: What does the source list for `COc1ccc(S(=O)(=O)n2cc(CCC(=O)O)c3cc(OC)ccc32)cc1` [Indeglitazar, 3-[5-methoxy-1-(4-methoxybenzenesulfonyl)-1H-indol-3-yl]-propanoic acid]?
A: agonism against PPARα (PPARα): full agonism; ability to cross the blood-brain barrier [1]: ~15%; liver histopathology: steatosis, hepatocellular karyomegaly, and ballooning ([2]; indeglitazar 50 mg/kg, prednisolone 10 mg/kg, data not shown): reduced significantly; effect on liver hydroxyproline [2, 5]: significant decrease; effect on plasma adiponectin [2, 5]: significant increase; effect on ALT [2, 6]: significant decreases; effect on AST [2, 6]: significant decreases; effect on plasma TGFβ [2, 6]: significant decrease; effect on total bilirubin [2, 6]: decrease; also recorded: significant decreases; decrease of liver TG [2, 7]: 28%; decrease of plasma TGFβ [2, 7]: 66%; decrease of plasma TNF-α [2, 7]: 50%; increase of adiponectin [2, 7]: 31%; decrease of hydroxyproline ([2]; indeglitazar 50 mg/kg, prednisolone 10 mg/kg, vs vehicle+EtOH, P<0.0001): 31%; effect on body weight [2, 8]: no significant effect; effect on gamma-glutamyl transferase (GGT) [2, 8]: no significant effect; effect on heart weight (actual) [2, 8]: no significant effect; effect on heart weight divided by body weight×100 [2, 8]: no significant effect; effect on body weight [2, 9]: Neither EtOH (vs no EtOH vehicle control), indeglitazar, or prednisolone had a significant effect; effect on heart weight (actual) [2, 9]: Neither EtOH (vs no EtOH vehicle control), indeglitazar, or prednisolone had a significant effect; effect on overall survival ([2]; indeglitazar 50 mg/kg/day, prednisolone 10 mg/kg/day, vs ethanol-treated vehicle control, male and female mice): significant increase; also recorded: significantly increased; stimulating adiponectin gene expression [3]: only partially effective; effect on liver hydroxyproline [4, 10]: significantly reduces; effect on plasma TGF-β1 [4, 10]: significantly reduces; effect on plasma adiponectin [4, 10]: significantly increases; magnitude of increase of plasma adiponectin ([4]; 30 mg/kg/day): approximately 125%; magnitude of reduction of hydroxyproline ([4]; 30 mg/kg/day): approximately 25%; magnitude of reduction of plasma TGFβ1 ([4]; 30 mg/kg/day): approximately 30%
